Reference: PubChem BioAssay AID2060906 (Molecular Pharmacology Branch, DTP, NCI, 2025)

Test system: 485176-168-R4-J1-PDC complex spheroid growth
Assay: Anticancer human tumor 485176-168-R4-J1-PDC patient-derived pancreatic adenocarcinoma cell line growth inhibition [RAS]
Settings: for viability, T/C: stronger effect = lower value
Summary of the method: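 Tumour cells grown as complex spheroids with HUVEC endothelial cells and mesenchymal stem cells, treated with RAS pathway inhibitor combinations. Each agent spans half-log steps from near clinical Cmax, or 10 microM where Cmax is unknown.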

[1] = curve of first compound, second compound 0.000949 µM
[2] = curve of first compound, second compound 0.003 µM
[3] = curve of first compound, second compound 0.00949 µM
[4] = curve of first compound, second compound 0.03 µM
[5] = curve of first compound, second compound 0.0949 µM
[6] = curve of first compound, second compound 0.3 µM
[7] = second compound 0.000949 µM, first compound 0.0316 µM
[8] = second compound 0.000949 µM, first compound 0.1 µM
[9] = second compound 0.000949 µM, first compound 0.316 µM
[10] = second compound 0.000949 µM, first compound 1 µM
[11] = second compound 0.000949 µM, first compound 3.16 µM
[12] = second compound 0.000949 µM, first compound 10 µM
[13] = second compound 0.003 µM, first compound 0.0316 µM
[14] = second compound 0.003 µM, first compound 0.1 µM
[15] = second compound 0.003 µM, first compound 0.316 µM
[16] = second compound 0.003 µM, first compound 1 µM
[17] = second compound 0.003 µM, first compound 3.16 µM
[18] = second compound 0.003 µM, first compound 10 µM
[19] = second compound 0.00949 µM, first compound 0.0316 µM
[20] = second compound 0.00949 µM, first compound 0.1 µM
[21] = second compound 0.00949 µM, first compound 0.316 µM
[22] = second compound 0.00949 µM, first compound 1 µM
[23] = second compound 0.00949 µM, first compound 3.16 µM
[24] = second compound 0.00949 µM, first compound 10 µM
[25] = second compound 0.03 µM, first compound 0.0316 µM
[26] = second compound 0.03 µM, first compound 0.1 µM
[27] = second compound 0.03 µM, first compound 0.316 µM
[28] = second compound 0.03 µM, first compound 1 µM
[29] = second compound 0.03 µM, first compound 3.16 µM
[30] = second compound 0.03 µM, first compound 10 µM
[31] = second compound 0.0949 µM, first compound 0.0316 µM
[32] = second compound 0.0949 µM, first compound 0.1 µM
[33] = second compound 0.0949 µM, first compound 0.316 µM
[34] = second compound 0.0949 µM, first compound 1 µM
[35] = second compound 0.0949 µM, first compound 3.16 µM
[36] = second compound 0.0949 µM, first compound 10 µM
[37] = second compound 0.3 µM, first compound 0.0316 µM
[38] = second compound 0.3 µM, first compound 0.1 µM
[39] = second compound 0.3 µM, first compound 0.316 µM
[40] = second compound 0.3 µM, first compound 1 µM
[41] = second compound 0.3 µM, first compound 3.16 µM
[42] = second compound 0.3 µM, first compound 10 µM
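Further: spheroids exposed to compounds for seven days before readout.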
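Wherever viability, T/C is given: luminescence viability expressed relative to DMSO vehicle wells set as 100%.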

Q: Which results are given for `Cc1nc(N2CCC3(CC2)COC(C)C3N)c(CO)nc1Sc1ccnc(N)c1Cl` (stereo not given) + CCn1c(-c2cccnc2C(C)OC)c2c3cc(ccc31)N1CCOC(CC(NC(=O)C(C(C)C)N(C)C(=O)C3(F)CCN(C(=O)C#CC(C)(C)N(C)C)CC3)C(=O)N3CCCC(N3)C(=O)OCC(C)(C)C2)C1?
A: IC50 [1]: > 10000 nM; IC50 [2]: > 10000 nM; IC50 [3]: > 10000 nM; IC50 [4]: > 10000 nM; IC50 [5]: > 10000 nM; IC50 [6]: > 10000 nM; viability, T/C [7]: 96.6%; viability, T/C [8]: 87.4%; viability, T/C [9]: 84%; viability, T/C [10]: 85.1%; viability, T/C [11]: 89.1%; viability, T/C [12]: 79.4%; viability, T/C [13]: 93.1%; viability, T/C [14]: 103%; viability, T/C [15]: 81%; viability, T/C [16]: 68.9%; viability, T/C [17]: 82%; viability, T/C [18]: 71%; viability, T/C [19]: 110%; viability, T/C [20]: 92.9%; viability, T/C [21]: 94.7%; viability, T/C [22]: 77.6%; viability, T/C [23]: 87.6%; viability, T/C [24]: 64.3%; viability, T/C [25]: 93.3%; viability, T/C [26]: 91.2%; viability, T/C [27]: 92.2%; viability, T/C [28]: 69.2%; viability, T/C [29]: 74.8%; viability, T/C [30]: 73.9%; viability, T/C [31]: 97.3%; viability, T/C [32]: 85.4%; viability, T/C [33]: 72.3%; viability, T/C [34]: 87.3%; viability, T/C [35]: 70.8%; viability, T/C [36]: 85.5%; viability, T/C [37]: 71.7%; viability, T/C [38]: 65.4%; viability, T/C [39]: 60.2%; viability, T/C [40]: 66%; viability, T/C [41]: 70.8%; viability, T/C [42]: 66.2%

Q: Which results are given for `C=CC(=O)Nc1cc(Nc2nccc(-c3cn(C)c4ccccc34)n2)c(OC)cc1N(C)CCN(C)C`?
A: viability, T/C (compound 0.00316 µM): 96.8% [middle of 4 runs]; viability, T/C (compound 0.01 µM): 97.1% [middle of 4 runs]; viability, T/C (compound 0.0316 µM): 96.3% [middle of 4 runs]; viability, T/C (compound 0.316 µM): 93.2% [middle of 4 runs]; viability, T/C (compound 1 µM): 64.5% [middle of 4 runs]; IC50 (curve of compound): > 1000 nM

Q: How did the IC50 [1] turn out when `CC(C)NCC(C(=O)N1CCN(c2ncnc3c2C(C)CC3O)CC1)c1ccc(Cl)cc1` (stereo not given) + CCn1c(-c2cccnc2C(C)OC)c2c3cc(ccc31)N1CCOC(CC(NC(=O)C(C(C)C)N(C)C(=O)C3(F)CCN(C(=O)C#CC(C)(C)N(C)C)CC3)C(=O)N3CCCC(N3)C(=O)OCC(C)(C)C2)C1 was run?
A: The IC50 was 2210 nM.

Q: What about the IC50 [2] of the same molecule?
A: The IC50 was 1700 nM.

Q: And the IC50 [3]?
A: The IC50 was 1250 nM.

Q: And the IC50 [4]?
A: Its IC50 is 1180 nM.

Q: And the IC50 [5]?
A: The IC50 was 1290 nM.

Q: What about the IC50 [6] of the same molecule?
A: Its IC50 is 510 nM.

Q: What about the viability, T/C [7] of the same molecule?
A: The viability, T/C was 98.8%.

Q: And the viability, T/C [8]?
A: Its viability, T/C is 86%.

Q: What about the viability, T/C [9] of the same molecule?
A: Its viability, T/C is 79.7%.

Q: What about the viability, T/C [10] of the same molecule?
A: The viability, T/C was 60%.

Q: What about the viability, T/C [11] of the same molecule?
A: The viability, T/C was 44.9%.

Q: What about the viability, T/C [12] of the same molecule?
A: Its viability, T/C is 30%.

Q: What about the viability, T/C [13] of the same molecule?
A: Its viability, T/C is 98.4%.

Q: And the viability, T/C [14]?
A: The viability, T/C was 91%.

Q: What about the viability, T/C [15] of the same molecule?
A: The viability, T/C was 76.7%.

Q: What about the viability, T/C [16] of the same molecule?
A: The viability, T/C was 59.1%.

Q: And the viability, T/C [17]?
A: Its viability, T/C is 39.6%.

Q: And the viability, T/C [18]?
A: Its viability, T/C is 28.9%.

Q: What about the viability, T/C [19] of the same molecule?
A: The viability, T/C was 91.8%.

Q: And the viability, T/C [20]?
A: The viability, T/C was 103%.

Q: What about the viability, T/C [21] of the same molecule?
A: Its viability, T/C is 73%.

Q: And the viability, T/C [22]?
A: The viability, T/C was 52.6%.

Q: What about the viability, T/C [23] of the same molecule?
A: Its viability, T/C is 45.4%.

Q: What about the viability, T/C [24] of the same molecule?
A: The viability, T/C was 31.2%.

Q: And the viability, T/C [25]?
A: The viability, T/C was 84.5%.

Q: And the viability, T/C [26]?
A: Its viability, T/C is 91.1%.

Q: What about the viability, T/C [27] of the same molecule?
A: Its viability, T/C is 74.1%.

Q: And the viability, T/C [28]?
A: The viability, T/C was 53.7%.

Q: What about the viability, T/C [29] of the same molecule?
A: The viability, T/C was 34.7%.

Q: And the viability, T/C [30]?
A: Its viability, T/C is 32.4%.

Q: What about the viability, T/C [31] of the same molecule?
A: Its viability, T/C is 94%.

Q: And the viability, T/C [32]?
A: The viability, T/C was 90.7%.

Q: What about the viability, T/C [33] of the same molecule?
A: The viability, T/C was 78.7%.

Q: And the viability, T/C [34]?
A: Its viability, T/C is 50.4%.

Q: And the viability, T/C [35]?
A: The viability, T/C was 40.9%.

Q: What about the viability, T/C [36] of the same molecule?
A: Its viability, T/C is 26.9%.

Q: And the viability, T/C [37]?
A: Its viability, T/C is 73.6%.

Q: What about the viability, T/C [38] of the same molecule?
A: Its viability, T/C is 81%.

Q: And the viability, T/C [39]?
A: The viability, T/C was 51.7%.

Q: What about the viability, T/C [40] of the same molecule?
A: The viability, T/C was 40.6%.

Q: And the viability, T/C [41]?
A: The viability, T/C was 27.3%.

Q: What about the viability, T/C [42] of the same molecule?
A: Its viability, T/C is 17.6%.
